Experimental findings from patent publication EP4722213A1, “NITROGEN-CONTAINING FUNCTIONAL GROUP-SUBSTITUTED PYRIDAZINOPYRIDONE DERIVATIVE AND USE THEREOF” (Sichuan Huiyu Pharmaceutical Co., Ltd., priority 2023, dated 2024) are described below.

Structures are written as SMILES. Where two headings read alike, the source gives them in different places. Some results are limits rather than exact numbers.

One test concerns the target T1, CYP3A4 (Homo sapiens, UniProt P08684).
T1 construct: human liver microsomes were used as the CYP450 enzyme source; from tissue; host or cells: human liver microsomes
Nature of the test: Inhibition of hepatic drug-metabolizing enzymes in human liver microsomes (substrates midazolam and testosterone). In kind it is in vitro ADME. The text has this:
(§1) The main site of drug metabolism is the liver, and the main component of the mixed-function oxidase system present in the liver is the CYP450 enzyme. This enzyme system causes most clinically observed drug-drug interactions, which in turn leads to an increased incidence of adverse drug reactions. CYP450 is a group of supergene family composed of many isozymes, wherein CYP3A4 acts as a major metabolizing enzyme and is involved in the metabolism of nearly half of clinically used drugs. Similarly, CYP2C9 and CYP2C19 also act as important metabolizing enzymes and are involved in the metabolism of various drugs clinically. Therefore, evaluating the risk of drug-drug interactions by testing the inhibitory activity of compounds on CYP450 enzymes at an early stage can improve the safety of medication use.
(§2) In the present disclosure, human liver microsomes were used as the CYP450 enzyme source. The specific probe substrates for each CYP isoenzyme (wherein CYP3A4 used two substrates, midazolam and testosterone, denoted as CYP3A4-M and CYP3A4-T respectively) were incubated with a series of concentrations of the test compound in the presence of the cofactor NADPH. The production amount of metabolites of probe substrates in the incubation system was determined by LC-MS/MS, and the IC50 values of the test compound against each CYP450 enzyme subtype were calculated to evaluate its inhibitory effect on each CYP450 enzyme subtype. During the experiment, 49 µL of PBS, 50 µL of probe substrate, and 50 µL of human liver microsome working solution were sequentially added to the incubation system, followed by the addition of 1 µL of the test compound working solution at each concentration, and the mixture was mixed well. After pre-incubation at 37°C for 5 min, 50 µL of NADPH was added to initiate the reaction. After incubation for the corresponding time, an appropriate amount of ice-cold acetonitrile containing an internal standard was added to terminate the reaction. The mixture was vortexed to mix well, centrifuged, and the supernatant was taken. The supernatant was injected into LC-MS/MS to determine the production amount of metabolites of the probe substrate. Taking the enzyme activity at the 0-concentration point (characterized by the production amount of metabolites) as 100%, the percentage of residual enzyme activity of metabolites at different concentrations of the test compound was calculated. IC50 was calculated by the residual enzyme activity using Graphpad Prism software.

The subject of test [1] is NCI-H358 non-small cell lung cancer cells. Nature of the test: Inhibition of NCI-H358 cell proliferation (CellTiter-Glo 3D, 7 days). In kind it is cell-based. The settings on record: Homo sapiens, NCI-H358, 168 h, 3D microspheres, read-out: Inhibitory activity against NCI-H358 cell proliferation (IC50). The essentials: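 NCI-H358 cells at 2000/well in ultra-low attachment plates grown overnight into spheroids, then exposed to 8-point 5-fold compound dilutions in RPMI-1640/10% FBS for 7 days at 37 °C. Viability by CellTiter-Glo 3D luminescence; inhibition relative to no-inhibitor and cell-free controls.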
Background: In ATP-based viability assays light output follows the ATP content of the culture.

The target in the next test is T2, CYP2C9 (Homo sapiens, UniProt P11712).
T2 construct: human liver microsomes were used as the CYP450 enzyme source; from tissue; host or cells: human liver microsomes
The test is described as follows: Inhibition of hepatic drug-metabolizing enzymes in human liver microsomes. In kind it is in vitro ADME.
Source text: as §1, §2
(In general: Liver microsomes are vesicles of endoplasmic reticulum, rich in cytochrome P450 enzymes.)

Another test addresses T3, CYP2C19 (Homo sapiens, UniProt P33261).
T3 construct: human liver microsomes were used as the CYP450 enzyme source; from tissue; host or cells: human liver microsomes
The description is as above. In kind it is in vitro ADME.
Source text: as §1, §2

The mark [2] stands for this setting: substrate midazolam, read-out: Inhibitory activity on drug-metabolizing enzymes (IC50, µM) CYP3A4-M.
Setting [3] is: substrate testosterone, read-out: Inhibitory activity on drug-metabolizing enzymes (IC50, µM) CYP3A4-T.
Setting [4] is: human liver microsomes, read-out: Inhibitory activity on drug-metabolizing enzymes (IC50, µM) CYP2C9.
[5] abbreviates: human liver microsomes, read-out: Inhibitory activity on drug-metabolizing enzymes (IC50, µM) CYP2C19.

T1 sequence (P08684 whole entry): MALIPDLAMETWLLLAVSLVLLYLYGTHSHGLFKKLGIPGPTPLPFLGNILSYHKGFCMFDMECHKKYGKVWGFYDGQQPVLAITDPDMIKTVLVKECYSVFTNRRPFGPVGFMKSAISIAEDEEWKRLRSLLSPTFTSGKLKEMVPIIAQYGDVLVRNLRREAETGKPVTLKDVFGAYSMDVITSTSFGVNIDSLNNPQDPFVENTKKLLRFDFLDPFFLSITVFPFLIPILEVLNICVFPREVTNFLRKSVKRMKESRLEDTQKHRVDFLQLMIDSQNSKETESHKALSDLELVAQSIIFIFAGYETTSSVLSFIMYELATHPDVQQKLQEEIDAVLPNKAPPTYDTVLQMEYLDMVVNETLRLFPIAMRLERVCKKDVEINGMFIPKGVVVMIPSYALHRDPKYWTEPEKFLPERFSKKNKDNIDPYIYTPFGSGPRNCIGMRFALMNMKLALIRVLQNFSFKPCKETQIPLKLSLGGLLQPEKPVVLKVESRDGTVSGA
T3 sequence (P33261 whole entry): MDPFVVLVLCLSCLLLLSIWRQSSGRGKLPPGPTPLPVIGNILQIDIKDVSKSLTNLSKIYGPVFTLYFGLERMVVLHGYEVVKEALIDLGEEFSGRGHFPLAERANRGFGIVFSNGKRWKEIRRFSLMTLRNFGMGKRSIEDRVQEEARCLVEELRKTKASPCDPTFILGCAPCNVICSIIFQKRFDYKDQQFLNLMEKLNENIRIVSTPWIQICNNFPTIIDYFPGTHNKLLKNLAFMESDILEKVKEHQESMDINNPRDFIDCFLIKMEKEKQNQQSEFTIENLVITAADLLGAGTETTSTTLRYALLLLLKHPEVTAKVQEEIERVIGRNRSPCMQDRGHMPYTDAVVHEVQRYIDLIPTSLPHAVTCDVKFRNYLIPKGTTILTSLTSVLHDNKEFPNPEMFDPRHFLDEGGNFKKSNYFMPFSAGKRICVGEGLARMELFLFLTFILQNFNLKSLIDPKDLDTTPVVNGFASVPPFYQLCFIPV
T2 sequence (P11712 whole entry): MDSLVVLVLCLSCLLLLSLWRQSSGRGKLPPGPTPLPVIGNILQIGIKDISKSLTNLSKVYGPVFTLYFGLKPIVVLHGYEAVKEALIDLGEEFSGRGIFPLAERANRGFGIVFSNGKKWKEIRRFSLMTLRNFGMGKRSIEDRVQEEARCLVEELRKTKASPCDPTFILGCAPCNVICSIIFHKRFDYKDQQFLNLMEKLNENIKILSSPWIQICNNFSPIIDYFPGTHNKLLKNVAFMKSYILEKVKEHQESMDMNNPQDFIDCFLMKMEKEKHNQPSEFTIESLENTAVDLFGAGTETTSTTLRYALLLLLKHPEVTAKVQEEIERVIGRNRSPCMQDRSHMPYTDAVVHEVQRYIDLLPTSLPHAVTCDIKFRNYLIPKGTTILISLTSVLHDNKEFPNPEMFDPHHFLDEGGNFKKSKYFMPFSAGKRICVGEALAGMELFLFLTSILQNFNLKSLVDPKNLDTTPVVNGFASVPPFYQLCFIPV

As for `CNc1nnc(N[C@H](C)c2cccc(C(F)F)c2F)c2cn(C3(C)CC3)c(=O)cc12.O=CO` [Example 9, (R)-4-((1-(3-(difluoromethyl)-2-fluorophenyl)ethyl)amino)-1-(methylamino)-6-(1-methylcyclopropyl) pyrido[3,4-d]pyridazin-7(6H)-one formate], the IC50 was more than 10 µM at CYP3A4 (setting [2]); more than 10 µM on CYP3A4 (setting [3]); 0.0426 µM in test [1]; more than 10 µM on CYP2C9 (setting [4]); more than 10 µM at CYP2C19 (setting [5]).

As for `CC(C)Nc1nnc(N[C@H](C)c2cccc(C(F)F)c2F)c2cn(C3(C)CC3)c(=O)cc12.O=CO` [Example 12, (R)-4-((1-(3-(difluoromethyl)-2-fluorophenyl)ethyl)amino)-1-(isopropylamino)-6-(1-methylcyclopropyl) pyrido[3,4-d]pyridazin-7(6H)-one formate], the IC50 on CYP3A4 (setting [2]) is more than 10 µM; at CYP3A4 (setting [3]) it was more than 10 µM; in test [1], 0.0363 µM; at CYP2C9 (setting [4]) it was more than 10 µM; at CYP2C19 (setting [5]) it was more than 10 µM.

For the molecule `CNc1nnc(N[C@H](C)c2cccc(C(F)(F)F)c2C)c2cn(C3CC3)c(=O)cc12` [Example 52, (R)-6-cyclopropyl-4-((1-(2-methyl-3-(trifluoromethyl)phenyl)ethyl)amino)-1-(methylamino)pyrid o[3,4-d]pyridazin-7(6H)-one], the IC50 on CYP3A4 (setting [2]) is more than 10 µM; at CYP3A4 (setting [3]), more than 10 µM; in test [1], 0.0615 µM; at CYP2C9 (setting [4]), more than 10 µM; at CYP2C19 (setting [5]), more than 10 µM.

As for `CNc1nnc(N[C@H](C)c2cccc(C(F)(F)F)c2C)c2cn(C3(C)CC3)c(=O)cc12` [Example 73, (R)-4-((1-(2-methyl-3-(trifluoromethyl)phenyl)ethyl)amino)-1-(methylamino)-6-(1-methylcyclopropyl) pyrido[3,4-d]pyridazin-7(6H)-one], the IC50 on CYP3A4 (setting [2]) was more than 10 µM; on CYP3A4 (setting [3]), more than 10 µM; in test [1], 0.0147 µM; at CYP2C9 (setting [4]), more than 10 µM; at CYP2C19 (setting [5]) it was more than 10 µM.

As for `C[C@@H](Nc1nnc(N2CCN(C)CC2)c2cc(=O)n(C3CC3)cc12)c1cccc(C(F)F)c1F` [Example 77], the IC50 was 7.81 µM on CYP3A4 (Inhibitory activity on drug-metabolizing enzymes (IC50, µM) CYP3A4-M, substrate midazolam); more than 10 µM against CYP3A4 (Inhibitory activity on drug-metabolizing enzymes (IC50, µM) CYP3A4-T, substrate testosterone); 0.0396 µM in test [1]; more than 10 µM against CYP2C9; more than 10 µM against CYP2C19.

Take `C[C@@H](Nc1nnc(N2CCN(C)CC2)c2cc(=O)n(C3(C)CC3)cc12)c1cccc(C(F)F)c1F.O=CO` [Example 80, (R)-4-((1-(3-(difluoromethyl)-2-fluorophenyl)ethyl)amino)-6-(1-methylcyclopropyl)-1-(4-methylpiperazin-1-yl)pyrido[3,4-d]pyridazin-7(6H)-one formate]: the IC50 on CYP3A4 (setting [2]) is more than 10 µM; on CYP3A4 (setting [3]), more than 10 µM; in test [1], 0.0208 µM; on CYP2C9 (setting [4]) it was more than 10 µM; on CYP2C19 (setting [5]) it was more than 10 µM.

On to `C[C@@H](Nc1nnc(N2CCN(C)CC2)c2cc(=O)n(C3CCC3)cc12)c1cccc(C(F)F)c1F` [Example 88, (R)-6-cyclobutyl-4-((1-(3-(difluoromethyl)-2-fluorophenyl)ethyl)amino)-1-(4-methylpiperazin-1-yl)pyrido[3,4-d]pyridazin-7(6H)-one], for which the IC50 was more than 10 µM at CYP3A4 (setting [2]); more than 10 µM on CYP3A4 (setting [3]); 0.0231 µM in test [1]; more than 10 µM on CYP2C9 (setting [4]); more than 10 µM at CYP2C19 (setting [5]).

`CCN1CCN(c2nnc(N[C@H](C)c3cccc(C(F)F)c3F)c3cn(C4CC(F)(F)C4)c(=O)cc23)CC1` [Example 98, (R)-6-(3,3-difluorocyclobutyl)-4-((1-(3-(difluoromethyl)-2-fluorophenyl)ethyl)amino)-1-(4-ethylpiperazin-1-yl)pyrido[3,4-d]pyridazin-7(6H)-one]: the IC50 on CYP3A4 (setting [2]) was more than 10 µM; on CYP3A4 (setting [3]), more than 10 µM; in test [1], 0.0376 µM; on CYP2C9 (setting [4]), more than 10 µM; on CYP2C19 (setting [5]) it was more than 10 µM.

Regarding `CCN1CCN(c2nnc(N[C@H](C)c3cccc(C(F)F)c3F)c3cn(N4CCOCC4)c(=O)cc23)CC1` [Example 109, (R)-4-((1-(3-(difluoromethyl)-2-fluorophenyl)ethyl)amino)-1-(4-ethylpiperazin-1-yl)-6-morpholinopyrido[3 ,4-d]pyridazin-7(6H)-one], the IC50 is more than 10 µM on CYP3A4 (setting [2]); more than 10 µM on CYP3A4 (setting [3]); 0.0166 µM in test [1]; more than 10 µM on CYP2C9 (setting [4]); more than 10 µM on CYP2C19 (setting [5]).

For the molecule `C[C@@H](Nc1nnc(N2CCN(C)CC2)c2cc(=O)n(N3CCOCC3)cc12)c1cccc(C(F)F)c1F` [Example 110, (R)-4-((1-(3-(difluoromethyl)-2-fluorophenyl)ethyl)amino)-1-(4-methylpiperazin-1-yl)-6-morpholinopyrido[3 ,4-d]pyridazin-7(6H)-one], the IC50 on CYP3A4 (setting [2]) was more than 10 µM; at CYP3A4 (setting [3]) it was more than 10 µM; in test [1], 0.0096 µM; at CYP2C9 (setting [4]), more than 10 µM; on CYP2C19 (setting [5]), more than 10 µM.

Consider `CC(C)N1CCN(c2nnc(N[C@H](C)c3cccc(C(F)F)c3F)c3cn(N4CCOCC4)c(=O)cc23)CC1` [Example 111, (R)-4-((1-(3-(difluoromethyl)-2-fluorophenyl)ethyl)amino)-1-(4-isopropylpiperazin-1-yl)-6-morpholinopyrido[3 ,4-d]pyridazin-7(6H)-one], for which the IC50 is more than 10 µM at CYP3A4 (setting [2]); more than 10 µM at CYP3A4 (setting [3]); 0.0144 µM in test [1]; more than 10 µM on CYP2C9 (setting [4]); more than 10 µM on CYP2C19 (setting [5]).

Consider `CCN1CCN(c2nnc(N[C@H](C)c3cccc(C(F)F)c3F)c3cn(C4CCC4)c(=O)cc23)CC1` [Example 112, (R)-6-cyclobutyl-4-((1-(3-(difluoromethyl)-2-fluorophenyl)ethyl)amino)-1-(4-ethylpiperazin-1-yl)pyrido[3,4-d]pyridazin-7(6H)-one], for which the IC50 on CYP3A4 (setting [2]) was more than 10 µM; on CYP3A4 (setting [3]) it was more than 10 µM; in test [1], 0.0202 µM; on CYP2C9 (setting [4]), more than 10 µM; on CYP2C19 (setting [5]) it was more than 10 µM.

`C[C@@H](Nc1nnc(N2CCN(C3CCCC3)CC2)c2cc(=O)n(N3CCOCC3)cc12)c1cccc(C(F)F)c1F` [Example 120, (R)-4-((1-(3-(difluoromethyl)-2-fluorophenyl)ethyl)amino)-1-(4-cyclopentylpiperazin-1-yl)-6-morpholinopyrido[3 ,4-d]pyridazin-7(6H)-one]: the IC50 at CYP3A4 (setting [2]) was more than 10 µM; at CYP3A4 (setting [3]), more than 10 µM; in test [1], 0.0249 µM; at CYP2C9 (setting [4]), more than 10 µM; on CYP2C19 (setting [5]) it was more than 10 µM.

`CCN1CCN(c2nnc(N[C@H](C)c3cccc(C(F)F)c3F)c3cn(C4(C)CC4)c(=O)cc23)CC1` [Example 216, (R)-4-((1-(3-(difluoromethyl)-2-fluorophenyl)ethyl)amino)-1-(4-ethylpiperazin-1-yl)-6-(1-methylcyclopropyl) pyrido[3,4-d]pyridazin-7(6H)-one]: the IC50 is more than 10 µM at CYP3A4 (setting [2]); more than 10 µM at CYP3A4 (setting [3]); 0.0364 µM in test [1]; more than 10 µM on CYP2C9 (setting [4]); more than 10 µM on CYP2C19 (setting [5]).

`CC(C)N1CCN(c2nnc(N[C@H](C)c3cccc(C(F)F)c3F)c3cn(C4(C)CC4)c(=O)cc23)CC1` [Example 217, (R)-4-((1-(3-(difluoromethyl)-2-fluorophenyl)ethyl)amino)-1-(4-isopropylpiperazin-1-yl)-6-(1-methylcyclopropyl) pyrido[3,4-d]pyridazin-7(6H)-one]: the IC50 at CYP3A4 (setting [2]) is more than 10 µM; at CYP3A4 (setting [3]) it was more than 10 µM; in test [1] it was 0.0471 µM; on CYP2C9 (setting [4]), more than 10 µM; on CYP2C19 (setting [5]) it was more than 10 µM.
